Read-outs that look alike come from different tables or passages of the source.
How the values were obtained:
SD IGS rats [1] = assay: Defecation-promoting action in rat, number of fecal pellets (Test Example 2); assay type: in vivo; details: for The number of fecal pellets/3 rats: Test Example 2
Experimental: (§1) SD IGS rats (6-weeks-old, from Charles River) were placed in cages (3 animals/cage) and preliminarily allowed food and water ad libitum and raised for 1 week. On the day of the experiment, their weight was measured, a water-absorbing sheet was placed below each cage, and the animals were fasted but allowed water ad libitum throughout the experiment. Three hours after fasting was initiated, the fecal pellets were recovered from each cage and observed for abnormality before the experiment, and then the compound suspended or dissolved in 0.5% (W/V) methyl cellulose (MC) was orally administered into each rat in a dose of 5 ml/kg. On one hand, 0.5% (W/V) MC only was orally given to the control group. After administering the compound, the rats were returned to the cage provided with a new water-absorbing sheet of known weight, and 180 minutes after the administration, the fecal pellets on the water-absorbing sheet were recovered from each cage, and the external appearance was observed, and the number of fecal pellets was counted. The number of fecal pellets is expressed per each cage (Table 4). After the fecal pellets were recovered, the water-absorbing sheet was weighed, and the weight determined by subtracting the initial weight of the water-adsorbing sheet from the weight after the experiment was regarded as the volume of urine and expressed as the volume of urine per 100 g of the body weight (Table 4).

[2] = Urine volume in rat (Test Example 2); assay type: in vivo; details: rats, oral, Table 4
Experimental: as §1, with “The number of fecal pellets is expressed per each cage (Table 4).” left out

SD IGS rats [3] = assay: Contribution of inhibition of adenosine A2b receptor to defecation-promoting action (Test Example 3); assay type: in vivo, rat
Experimental: as §1, with “The number of fecal pellets is expressed per each cage (Table 4).” left out, “4). […]” for “4).”

[4] = system: rat distal colon longitudinal muscles; details: cited from earlier work; for Relaxation of Carbachol-contracted muscles: agonist added at 0.1 to 30 μM
[5] = system: guinea pig distal colon longitudinal muscles; details: cited from earlier work; for pA2 value of the antagonistic action on the relaxing action of NECA: electrical stimulation
[6] = system: guinea pig colon longitudinal muscles; details: 100 nM; cited from earlier work
[7] = system: guinea pig distal colon longitudinal muscles; details: KCl + tetrodotoxin, cited from earlier work
SD IGS rats [8] = assay: Evaluation of defecation-promoting action (Table 10); assay type: in vivo, rat; details: 180 minutes, n = 6 cages/group
Experimental: That is, SD IGS rats (6-to 7-weeks-old, from Charles River) were placed in cages (3 animals/cage) and preliminarily allowed food and water ad libitum and raised for 1 week. On the day of the experiment, their weight was measured, a water-absorbing sheet was placed below each cage, and the animals were fasted but allowed water ad libitum throughout the experiment. Thee hours after fasting was initiated, the fecal pellets were recovered from each cage and observed for abnormality before the experiment, and then the compound suspended in 0.5% (w/v) methyl cellulose (MC) was orally administered in a dose of 5 ml/kg. On one hand, 0.5% (w/v) MC only was orally given to the control group. After administration of the compound, the rats were returned to the cage provided with a new water-absorbing sheet, and 180 minutes after the administration, the fecal pellets on the water-absorbing sheet were recovered from each cage, and the external appearance was observed, and the number of fecal pellets was counted. The number of fecal pellets is expressed per each cage.

Compound: CCCn1c(=O)c2[nH]c(C34CC5CC(CC3C5)C4)nc2n(CCC)c1=O [KW3902]
- The number of fecal pellets/3 rats (SD IGS rats [1]; 0.3 mg/kg oral, 180 minutes after administration): 10.67 ± 2.08 fecal pellets/3 rats
- The number of fecal pellets/3 rats (SD IGS rats [1]; 1 mg/kg oral, 180 minutes): 14.50 ± 1.18 fecal pellets/3 rats
- The number of fecal pellets/3 rats (SD IGS rats [1]; 3 mg/kg oral, 180 minutes): 12.83 ± 1.66 fecal pellets/3 rats
- Diuretic action (in words) [2]: stronger diuretic action than Compound I
- The number of fecal pellets/3 rats (SD IGS rats [3]; KW3902 1 mg/kg together with KW6002 1 mg/kg, 180 minutes): 18.25 ± 1.49 fecal pellets/3 rats
- The number of fecal pellets/3 rats (SD IGS rats [3]; KW3902 1 mg/kg without KW6002, 180 minutes): 9.00 ± 1.08 fecal pellets/3 rats

Compound: OC[C@H]1O[C@@H](n2cnc3c(NC4CCCC4)ncnc32)[C@H](O)[C@@H]1O [CPA]
- Relaxation of Carbachol-contracted muscles [4]: relaxation was observed
- Relaxation of muscles contracted by electrical stimulation [5]: relaxation was observed
- Relaxing action on contraction stimulated by acetylcholine [6]: did not exhibit a relaxing action

Compound: CCNC(=O)[C@H]1O[C@@H](n2cnc3c(N)ncnc32)[C@H](O)[C@@H]1O [NECA, 5′-N-ethylcarboxyamide adenosine]
- Relaxation of Carbachol-contracted muscles [4]: relaxation was observed
- Relaxation of muscles contracted by electrical stimulation [5]: relaxation was observed
- Relaxing action on contraction stimulated by acetylcholine [6]: did not exhibit a relaxing action

Compound: CCNC(=O)[C@H]1O[C@@H](n2cnc3c(N)nc(NCCc4ccc(CCC(=O)O)cc4)nc32)[C@H](O)[C@@H]1O [CGS21680, 2-p-[2-carboxyethyl]phenetylamino-5′-N-ethylarboxyamide adenosine]
- Antagonism of the relaxing action of NECA and CPA ([4]; 10 μM): not antagonized
- Relaxation of muscles contracted by electrical stimulation [5]: very weak
- Relaxing action ([7]; 1 μM): did not act

Compound: CCCn1c(=O)c2[nH]c(C3CCCC3)nc2n(CCC)c1=O [DPCPX]
- Antagonism of the relaxing action of NECA and CPA ([4]; 1 μM): antagonized
- pA2 value of the antagonistic action on the relaxing action of NECA [5]: 8.8
- Antagonistic action on the relaxing action ([7]; 1 nM): did not show an antagonistic action
- Antagonistic action on the relaxing action of NECA and CPA ([7]; 10 nM): inhibited the relaxing action of NECA and CPA
- pA2 value against CPA [7]: 7.0
- pA2 value against NECA [7]: 6.6

Compound: Cn1c(=O)c2[nH]c(-c3ccccc3)nc2n(C)c1=O [Example 8-PT, 8-phenyltheophylline]
- pA2 value of the antagonistic action on the relaxing action of NECA [5]: 6.5
- pA2 value upon inhibition of the action of NECA ([7]; 10 μM): 5.7

Compound: Nc1nc(N)c(-c2ccncc2)c(-c2cccc(F)c2)n1 [Example 1, 6-(3-Flurophenyl)-5-(4-pyridyl)-2,4-pyrimidine diamine]
- The number of fecal pellets/3 rats (SD IGS rats [8]; 3 mg/kg oral): 14.83 ± 1.82 fecal pellets/3 rats
- The number of fecal pellets/3 rats (SD IGS rats [8]; 10 mg/kg oral): 23.17 ± 2.94 fecal pellets/3 rats

Compound: Nc1ncc(-c2ccncc2)c(-c2ccco2)n1 [Compound I, 2-Amino-4-(2-furyl)-5-(4-pyridyl)pyrimidine]
- Defecation-promoting action (in words) (SD IGS rats [1]; rats, oral, Table 4): evidently higher defecation-promoting action
- Diuretic action (in words) [2]: weaker diuretic action than the A1-selective antagonist KW3902
